PubChem BioAssay (NCI)
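Exposure lasted 48 hours, with cells grown in 96-well plates and compounds tested at five concentrations. TGI: concentration producing complete growth inhibition.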

Legend:
Test in all cases: DTP human tumour cell line panel, 48 h
[1] = system: 786-0 renal
[2] = system: A498 renal
[3] = system: A549 NSCLC
[4] = system: ACHN renal
[5] = system: BT-549 breast
[6] = system: CAKI-1 renal
[7] = system: CCRF-CEM leukemia
[8] = system: COLO 205 colon
[9] = system: DU-145 prostate
[10] = system: EKVX NSCLC
[11] = system: HCC-2998 colon
[12] = system: HCT-116 colon
[13] = system: HCT-15 colon
[14] = system: HL-60(TB) leukemia
[15] = system: HOP-62 NSCLC
[16] = system: HOP-92 NSCLC
[17] = system: HS 578T breast
[18] = system: HT29 colon
[19] = system: IGROV1 ovarian
[20] = system: KM12 colon
[21] = system: LOX IMVI melanoma
[22] = system: M14 melanoma
[23] = system: MALME-3M melanoma
[24] = system: MCF7 breast
[25] = system: MDA-MB-231 breast
[26] = system: MDA-MB-435
[27] = system: MDA-N
[28] = system: MOLT-4 leukemia
[29] = system: NCI-H226 lung
[30] = system: NCI-H23 lung
[31] = system: NCI-H460 lung
[32] = system: NCI-H522 lung
[33] = system: NCI/ADR-RES ovarian
[34] = system: OVCAR-4 ovarian
[35] = system: OVCAR-5 ovarian
[36] = system: OVCAR-8 ovarian
[37] = system: PC-3 prostate
[38] = system: RXF 393 renal
[39] = system: SF-268 CNS
[40] = system: SF-295 CNS
[41] = system: SF-539 CNS
[42] = system: SK-MEL-2 melanoma
[43] = system: SK-MEL-28 melanoma
[44] = system: SK-MEL-5 melanoma
[45] = system: SN12C renal
[46] = system: SNB-19 CNS
[47] = system: SNB-75 CNS
[48] = system: SW-620 colon
[49] = system: T-47D breast
[50] = system: TK-10 renal
[51] = system: U251 CNS
[52] = system: UACC-257 melanoma
[53] = system: UO-31 renal
[54] = system: K-562 leukemia
[55] = system: OVCAR-3 ovarian
[56] = system: RPMI-8226 leukemia
[57] = system: SK-OV-3 ovarian
[58] = system: UACC-62 melanoma

With O=c1cn[nH]c2nc3ccccc3n12 as the compound, how does the TGI [1] read?
The TGI was > 100 µM.

And the TGI [2]?
The TGI was > 100 µM.

What about the TGI [3] of the same compound?
Its TGI is > 100 µM.

What about the TGI [4] of the same compound?
The TGI was > 100 µM.

And the TGI [5]?
The TGI was > 100 µM.

And the TGI [6]?
The TGI was > 100 µM.

What about the TGI [7] of the same compound?
Its TGI is > 100 µM.

What about the TGI [8] of the same compound?
The TGI was > 100 µM.

What about the TGI [9] of the same compound?
Its TGI is > 100 µM.

What about the TGI [10] of the same compound?
Its TGI is > 100 µM.

And the TGI [11]?
The TGI was > 100 µM.

And the TGI [12]?
The TGI was > 100 µM.

And the TGI [13]?
Its TGI is > 100 µM.

What about the TGI [14] of the same compound?
Its TGI is > 100 µM.

What about the TGI [15] of the same compound?
The TGI was > 100 µM.

What about the TGI [16] of the same compound?
Its TGI is > 100 µM.

What about the TGI [17] of the same compound?
Its TGI is > 100 µM.

What about the TGI [18] of the same compound?
Its TGI is > 100 µM.

And the TGI [19]?
Its TGI is > 100 µM.

What about the TGI [20] of the same compound?
Its TGI is > 100 µM.

And the TGI [21]?
Its TGI is > 100 µM.

And the TGI [22]?
The TGI was > 100 µM.

What about the TGI [23] of the same compound?
Its TGI is > 100 µM.

What about the TGI [24] of the same compound?
Its TGI is > 100 µM.

What about the TGI [25] of the same compound?
The TGI was > 100 µM.

What about the TGI [26] of the same compound?
The TGI was > 100 µM.

What about the TGI [27] of the same compound?
Its TGI is > 100 µM.

What about the TGI [28] of the same compound?
Its TGI is > 100 µM.

What about the TGI [29] of the same compound?
Its TGI is > 100 µM.

What about the TGI [30] of the same compound?
Its TGI is > 100 µM.

What about the TGI [31] of the same compound?
Its TGI is > 100 µM.

And the TGI [32]?
Its TGI is > 100 µM.

What about the TGI [33] of the same compound?
The TGI was > 100 µM.

And the TGI [34]?
Its TGI is > 100 µM.

And the TGI [35]?
The TGI was > 100 µM.

And the TGI [36]?
Its TGI is > 100 µM.

What about the TGI [37] of the same compound?
The TGI was > 100 µM.

What about the TGI [38] of the same compound?
Its TGI is > 100 µM.

And the TGI [39]?
Its TGI is > 100 µM.

And the TGI [40]?
The TGI was > 100 µM.

And the TGI [41]?
Its TGI is > 100 µM.

What about the TGI [42] of the same compound?
Its TGI is > 100 µM.

What about the TGI [43] of the same compound?
Its TGI is > 100 µM.

What about the TGI [44] of the same compound?
The TGI was > 100 µM.

And the TGI [45]?
The TGI was > 100 µM.

What about the TGI [46] of the same compound?
Its TGI is > 100 µM.

And the TGI [47]?
Its TGI is > 100 µM.

And the TGI [48]?
The TGI was > 100 µM.

And the TGI [49]?
Its TGI is > 100 µM.

What about the TGI [50] of the same compound?
Its TGI is > 100 µM.

And the TGI [51]?
Its TGI is > 100 µM.

What about the TGI [52] of the same compound?
Its TGI is > 100 µM.

And the TGI [53]?
Its TGI is > 100 µM.

O=C1C(Cl)=C(Cl)C(Cl)(Cl)C(Cl)C1(Cl)Cl (configuration not stated) was tested. Which TGI [1] did it give?
The TGI was > 100 µM.

What about the TGI [2] of the same compound?
Its TGI is 29.8 µM.

What about the TGI [3] of the same compound?
Its TGI is 51.3 µM.

And the TGI [4]?
Its TGI is > 100 µM.

What about the TGI [5] of the same compound?
Its TGI is 54.1 µM.

What about the TGI [7] of the same compound?
The TGI was 82.7 µM.

And the TGI [8]?
The TGI was 41.2 µM.

What about the TGI [9] of the same compound?
The TGI was > 100 µM.

And the TGI [10]?
Its TGI is 50.9 µM.

What about the TGI [11] of the same compound?
Its TGI is 34.9 µM.

What about the TGI [12] of the same compound?
Its TGI is 42.9 µM.

What about the TGI [13] of the same compound?
The TGI was 98.8 µM.

What about the TGI [14] of the same compound?
The TGI was 58.4 µM.

What about the TGI [15] of the same compound?
The TGI was 76.2 µM.

What about the TGI [16] of the same compound?
The TGI was 59.8 µM.

What about the TGI [17] of the same compound?
The TGI was 64.9 µM.

What about the TGI [18] of the same compound?
Its TGI is 71.5 µM.

What about the TGI [19] of the same compound?
Its TGI is 33.2 µM.

And the TGI [54]?
Its TGI is > 100 µM.

What about the TGI [20] of the same compound?
The TGI was 50.6 µM.

And the TGI [21]?
The TGI was 41.6 µM.

And the TGI [22]?
The TGI was 90.8 µM.

What about the TGI [23] of the same compound?
Its TGI is 49.5 µM.

What about the TGI [24] of the same compound?
Its TGI is 55 µM.

And the TGI [25]?
Its TGI is 44.6 µM.

And the TGI [26]?
Its TGI is 59.2 µM.

And the TGI [27]?
Its TGI is 66.2 µM.

And the TGI [30]?
Its TGI is 52.9 µM.

What about the TGI [31] of the same compound?
The TGI was 47.4 µM.

What about the TGI [32] of the same compound?
The TGI was 32.5 µM.

What about the TGI [33] of the same compound?
The TGI was 64 µM.

And the TGI [55]?
Its TGI is 47.4 µM.

What about the TGI [35] of the same compound?
The TGI was 58 µM.

What about the TGI [36] of the same compound?
Its TGI is > 100 µM.

What about the TGI [37] of the same compound?
The TGI was 77.1 µM.

And the TGI [56]?
Its TGI is 70.4 µM.

And the TGI [38]?
The TGI was 44.5 µM.

And the TGI [39]?
Its TGI is 51.3 µM.

What about the TGI [40] of the same compound?
Its TGI is 50.8 µM.

What about the TGI [41] of the same compound?
The TGI was 32.8 µM.

What about the TGI [42] of the same compound?
Its TGI is 34.3 µM.

And the TGI [43]?
The TGI was 62.1 µM.

What about the TGI [44] of the same compound?
Its TGI is 27.6 µM.

What about the TGI [57] of the same compound?
Its TGI is 74.1 µM.

What about the TGI [45] of the same compound?
The TGI was 50.6 µM.

And the TGI [46]?
The TGI was 61 µM.

What about the TGI [47] of the same compound?
The TGI was 58.6 µM.

What about the TGI [48] of the same compound?
Its TGI is 54.7 µM.

And the TGI [49]?
Its TGI is 75.9 µM.

What about the TGI [50] of the same compound?
The TGI was 65.3 µM.

And the TGI [51]?
Its TGI is 44.6 µM.

And the TGI [52]?
The TGI was 44.8 µM.

And the TGI [58]?
Its TGI is 32.9 µM.

What about the TGI [53] of the same compound?
Its TGI is 32.7 µM.
